Values of other authors, collected in US20030072777A1, “Combinatorial anti-acne compositions” (priority 2001, published 2003).
Where two headings read alike, the source gives them in different places.

What was measured:
P. acnes = conditions: 5 percent benzoyl peroxide two times daily for five days
[1] = system: inflammatory lesions and comedones of acne vulgaris
sebaceous glands = conditions: retinoid treatment

SMILES	Reduction of P. acnes population (P. acnes)	Average percent reduction of non-inflamed lesions (mean comedone counts) ([1]; Week 2, data from Chalker et al. FIG. 1) [%]	Average percent reduction of inflamed lesions (mean inflammatory lesion counts) ([1]; Week 2, data from Chalker et al. FIG. 4) [%]	Average percent reduction of non-inflamed lesions (mean comedone counts) ([1]; Week 4, data from Chalker et al. FIG. 1) [%]	Average percent reduction of inflamed lesions (mean inflammatory lesion counts) ([1]; Week 4, data from Chalker et al. FIG. 4) [%]	Average percent reduction of non-inflamed lesions (mean comedone counts) ([1]; Week 6, data from Chalker et al. FIG. 1) [%]	Average percent reduction of inflamed lesions (mean inflammatory lesion counts) ([1]; Week 6, data from Chalker et al. FIG. 4) [%]	Shrinkage of the glands (sebaceous glands)
O=C(OOC(=O)c1ccccc1)c1ccccc1 [5.0% Benzoyl peroxide, Benzoyl peroxide]	more than 95%	12	27	15	21	28	46	–
CC1=C(/C=C/C(C)=C/C=C/C(C)=C\C(=O)O)C(C)(C)CCC1 [isotretinoin, 13-cis retinoic acid]	–	–	–	–	–	–	–	about 90%
